Tested on: 3′UTR of fog2 mRNA
Test: luciferase assay with wild-type or mutated miR-200 target sites of FOG2 3′UTR
Format: cell-based, human
Conditions: Hela cell lines, compared to siGFP
Protocol: The inventors examined whether human miR-200 family miRNAs regulate the expression by directly binding to 3′ UTR of fog2 mRNA in the same manner as drosophila miR-8 miRNA regulates the expression by directly binding to 3′ UTR of ush mRNA. Specifically, in order to obtain cDNA of FOG2, represented by SEQ ID: 110, from K562 cell lines, total RNA was extracted using RNeasy mini kit (QIAGEN, US). Then, 1 μg of total RNA and 1 μl of Oligo-dT (Invitrogen, US) were charged with up to 50 μl of distilled water, and placed into SuperScript First-Strand Synthesis System (Invitrogen, US), followed by RT-PCR reaction. […] By using pCK-FOG2, primers noted in Table 8, and QuickChange Site-Directed Mutagenesis kit, one (FOG2 m1, FOG2 m2, FOG2 m3), two ((FOG2 m12, FOG2 m23) or three (FOG2 m123) mutants were introduced into three miR-200 target sites of FOG2 3′UTR. Hela cell lines were transfected with wild-type FOG2(FOG2 wt), FOG2 ml, FOG2 m2, FOG2 m3, FOG2 m12, FOG2 m23 or FOG2 m123, together with renilla luciferase expression vector and synthesized siGFP, miR-141/200a or miR-200b/c/429. Then, the activity of luciferase was measured in the same manner as described in Example 8-2. The synthesized miRNA include a mixture of the same levels of miRNAs including respective seed sequences. […]

Row | Substance | expression of luciferase, FOG2 3′UTR
1 | 5′-UAACACUGUCUGGUAAAGAUGG-3′ (listed as RNA, chemistry not given here) [miR-141] | suppressed the expression of luciferase, albeit less effectively than the other members did
2 | 5′-UAACACUGUCUGGUAACGAUGU-3′ (listed as RNA, chemistry not given here) [miR-200a] | suppressed the expression of luciferase, albeit less effectively than the other members did

— patent US20130011845A1, “MICRORNA REGULATING THE INSULIN SIGNALING PATHWAY, AND METHOD FOR SCREENING MATERIAL FOR CONTROLLING THE ACTION OF A TARGET THEREOF” (SNU R & DB Foundation, priority 2009, published 2013)
